From patent US20220296676A1 (priority 2020, published 2022)

Key:
in vitro [1] = conditions: human
[2] = system: human coronavirus (HCoV) 229E; experiment: microbe, parasite or virus in culture; conditions: MRC5, 72 h
in vitro [3] = conditions: human; remark: listed apart in the source

Structure (SMILES) | CC50 at 3 days (in vitro [1]) | EC50 [2] | CC50 (in vitro [3]) | CC50 (in vitro [1])
C/C=C/C[C@@H](C)[C@@H](O)[C@H]1C(=O)N[C@@H](CC)C(=O)N(C)[C@H](SCCN(C)C)C(=O)N(C)[C@@H](CC(C)(C)O)C(=O)N[C@@H](C(C)C)C(=O)N(C)[C@@H](CC(C)C)C(=O)N[C@@H](C)C(=O)N[C@H](C)C(=O)N(C)[C@@H](CC(C)C)C(=O)N(C)[C@@H](CC(C)C)C(=O)N(C)[C@@H](C(C)C)C(=O)N1C [WS-635] | 46.8 µM | 5.16 µM | > 100 µM | –
CCC(CC)COC(=O)[C@H](C)N[P@](=O)(OC[C@H]1O[C@@](C#N)(c2ccc3c(N)ncnn23)[C@H](O)[C@@H]1O)Oc1ccccc1 [Remdesivir, reference compound] | – | 0.03 µM | – | 49.2 µM
